From US20180354991A1, “THERAPEUTIC COMPOSITIONS INCLUDING GRAMICIDIN S PEPTIDYL CONJUGATES OR IMIDAZOLE-SUBSTITUTED FATTY ACIDS, VARIANTS THEREOF AND USES THEREOF” (Stealth Biotherapeutics Corp, priority 2015, published 2018)

Test system: neonatal cardiomyocytes
Assay: Ang II-induced mitochondrial superoxide (Mitosox) in neonatal cardiomyocytes
Type: cell-based, mouse
Conditions: Angiotensin II 1 μM for 3 hours; peptide conjugates 1 nM or equimolar; NAC 0.5 mM
Procedure: Ventricles from mouse neonates younger than 72 hours will be dissected, minced, and enzymatically digested with Blendzyme 4 (45 mg/mL, Roche). After enzymatic digestion, cardiomyocytes will be enriched using differential pre-plating for 2 hours, and seeded on fibronectin-coated culture dishes for 24 hours in DMEM (Gibco) with 20% Fetal Bovine Seium (Sigma) and 25 μM Arabinosylcytosine (Sigma). Cardiomyocytes will be stimulated with Angiotensin II (1 μM) for 3 hours in serum-free DMEM containing 0.5% insulin transferrin-selenium (Sigma), 2 mM glutamine, and 1 mg/mL BSA. […] Samples will be analyzed using excitation/emission of 488/625 nm by flow cytometry. Flow data will be analyzed using FCS Express (De Novo Software, Los Angeles, Calif., U.S.A.), and presented as histogram distributions of Mitosox fluorescence intensity.

SMILES: CC(=O)N[C@@H](CS)C(=O)O [N-acetyl cysteine]
- Ang II-induced Mitosox fluorescence (mitochondrial ROS): not show any effect
